Reference: article PMC12130451 (Scientific Reports, 2025)

Experiments:
AChE = AChE (Electrophorus electricus, UniProt O42275); experiment: Enzyme kinetic study; format: biochemical, electric eel
[1] = molecular target: acetylcholinesterase (AChE, E.C. 3.1.1.7, Type V-S) (Electrophorus electricus, UniProt O42275); experiment: AChE inhibition, modified Ellman method; format: biochemical, electric eel; conditions: read-out: % Inhibition at 50 µM, AChE, Mean ± SE
acetylcholinesterase (AChE, E.C. 3.1.1.7, Type V-S), sequence (O42275 24-633): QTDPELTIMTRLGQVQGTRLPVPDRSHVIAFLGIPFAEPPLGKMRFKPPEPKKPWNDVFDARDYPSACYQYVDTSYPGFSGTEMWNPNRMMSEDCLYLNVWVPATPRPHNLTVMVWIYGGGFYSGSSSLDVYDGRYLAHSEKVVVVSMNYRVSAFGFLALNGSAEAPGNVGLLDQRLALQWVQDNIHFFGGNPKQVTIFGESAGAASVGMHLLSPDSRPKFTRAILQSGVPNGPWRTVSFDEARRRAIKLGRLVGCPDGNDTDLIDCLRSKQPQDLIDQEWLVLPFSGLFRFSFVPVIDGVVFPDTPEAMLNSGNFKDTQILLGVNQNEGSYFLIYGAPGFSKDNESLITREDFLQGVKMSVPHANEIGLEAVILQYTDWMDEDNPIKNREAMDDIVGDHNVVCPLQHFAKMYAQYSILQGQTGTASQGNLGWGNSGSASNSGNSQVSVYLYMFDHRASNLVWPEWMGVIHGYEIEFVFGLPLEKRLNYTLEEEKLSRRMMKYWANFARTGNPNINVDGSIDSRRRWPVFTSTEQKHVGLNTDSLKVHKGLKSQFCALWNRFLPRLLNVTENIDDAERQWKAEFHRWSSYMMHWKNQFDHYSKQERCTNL

AChE, sequence (O42275 24-633): as above

SMILES | Ki (AChE) | secondary inhibition constant (Kis) (AChE; AChE, 1/Vmax vs inhibitor concentration) | type of inhibition (AChE; AChE, Lineweaver-Burk plot) | inhibition at 50 µM [1]
CC(C)(C)OC(=O)NC1CCCN(C(=O)/C=C/c2ccccc2Cl)C1 (stereo not shown) [5b, tert-butyl (E)-(1-(3-(2-chlorophenyl)acryloyl)piperidin-3-yl)carbamate] | 10 µM | 36.16 µM | mix-type inhibition | 
COc1ccc(OC)c(/C=C/C(=O)N2CCCC(NC(=O)OC(C)(C)C)C2)c1 (stereo not shown) [5o, tert-butyl (E)-(1-(3-(2,5-dimethoxyphenyl)acryloyl)piperidin-3-yl)carbamate] |  |  |  | 44.1%
